Assay results: patent US12134769B2, “MicroRNA-198 as a tumor suppressor in ovarian cancer” (Baylor College of Medicine, priority 2011, dated 2024)

Experiments:
[1] = system: MIA-MSLN cells; test: Stable miR-198 overexpression, expression of network factors; format: cell-based, human; conditions: miR-198 overexpression in MIA-MSLN cells
Procedure: (§1) Western blots were performed as previously described (Li et al., 2008). Membranes were probed with: anti-MSLN monoclonal antibody (1:1000) (Abcam); PBX-1 polyclonal antibody (1:1000) and Caspase 3 antibody (1:1000) (Cell Signaling); OCT-2 polyclonal antibody (1:400), and VCP polyclonal antibody (1:200) (Santa Cruz Biotechnology); or anti-β-actin, Tubulin, LaminA or GAPDH antibodies (1:10,000) (Sigma Aldrich). Secondary incubation was performed with horseradish peroxidase-linked secondary antibody (1:2,000) (anti-mouse, anti-goat or anti-rabbit) (Cell Signaling).
(§2) MSLN-overexpressing stable cells (or empty vector controls) were selected in MIA PaCa-2 cells or HPDE cells (MIA-MSLN, HPDE-MSLN) or vector (MIA-V, HPDE-V) using retrovirus vectors expressing puromycin resistance (Origene) with 0.5 μg/mL of puromycin added into the medium as previously described (Zhang et al.). Stable cells overexpressing miR-198 or vector control were generated in AsPC-1 (AsPC-1-miR-198, AsPC-1-miR-Ctrl), MIA-MSLN (MIA-MSLN-miR-198, MIA-MSLN-miR-Ctrl), MIA-V (MIA-V-miR-198, MIA-V-miR-Ctrl), and HPDE cells (HPDE-miR-198, HPDE-miR-Ctrl) using the Lenti-miR miRNA Precursor Clone Collection (SBI). The miRZip Lentivector collection from SBI was used to stably knock down miR-198 in MIA-PaCa2 (MIA-V-Zip-198, MIA-V-Zip-Ctrl) and HPDE (HPDE-Zip-198, HPDE-Zip-Ctrl) cells.
(§3) Differential expression of 95 miRNAs chosen for their potential roles in cancer, cell development, and apoptosis was analyzed by RT-PCR using the QuantiMir System from SBI System Biosciences in both MIA-V and MIA-MSLN cells. The array plate also included the U6 transcript as a normalization signal. cDNAs from different cell lines and tissue samples were mixed with SYBR® Green Mastermix (Bio-Rad Laboratories) plus the universal reverse primer. Specific primers (1 μl) were added to each well of the qPCR plate. Expression levels of each mature miRNA were evaluated using comparative threshold cycle (Ct) method as normalized to that of U6 (2—ΔCt). The expression level of miR-198 was measured in all subsequent experiments using the same method. Real-time RT PCR was performed as previously described for MSLN, ZEB1, PBX-1, and VCP (Li et al., 2008).

[2] = system: AsPC1 cells; test: as above; format: cell-based, human
Procedure: as §1, §2, §3

## miR-198: microRNA-198, SEQ ID NO: 1 gguccagaggggagauagg; used as transfected precursors (Ambion) or Lenti-miR stable overexpression (GGUCCAGAGGGGAGAUAGG; listed as RNA, chemistry not given here; listed as Homo sapiens)
[1]
  MSLN expression at the protein level: almost complete reduction of MSLN expression
  MSLN mRNA expression levels: partial decrease
  PBX-1 mRNA and protein expression: almost undetectable
[1]; FIG. 10I
  VCP mRNA levels: reduces VCP down to MIA-V cell levels
[2]; ASPC1 cells following miR-198 overexpression, FIG. 10J
  VCP mRNA levels downregulated: ~5 fold
[2]; AsPC1 cells following miR-198 overexpression, FIG. 3E
  VCP expression downregulated: ~50 fold
[2]; miR-198 overexpression in AsPC1 cells
  PBX-1 mRNA and protein expression: almost undetectable
